Read-outs that look alike come from different tables or passages of the source.
How the values were obtained:
[1] = test system: HCT116 tumors vs 786O tumors; assay: response of hypoxic vs non-hypoxic tumors; type: in vivo, nude mice; settings: doses as in the 3rd table
mTORC1 = mTORC1 (Homo sapiens, UniProt P42345); settings: immune-kinase assays; cited from earlier work
mTORC2 = mTORC2 (Homo sapiens, UniProt P42345); settings: immune-kinase assays; cited from earlier work
[2] = test system: phosphorylated RPS6 (ribosomal protein S6); settings: TSC1-deficient cells; cited from earlier work
[3] = test system: HCT116 human colon carcinoma xenograft; assay: HCT116 xenograft model (hypoxic tumor); type: in vivo, nude mice
Procedure: (§1) Human tumor cell lines HCT116 (ATCC #CRL-247; Schroy PC, et al. Cancer 76:201-209, 1995) and 786-O (ATCC #CRL-1932; Williams RD, et al. In Vitro 12:623-627, 1976), were obtained from the American Type Culture Collection (Manassus, Va., USA) were cultured using routine methods until a sufficient number of cells were obtained for implantation. Studies were conducted on animals between 7 and 12 weeks of age at implantation. To implant HCT116 tumor cells into nude mice, the cells were trypsinized, washed in PBS and resuspended at a concentration of 75×10^6 cells/ml in McCoy's modified medium with 50% of BD Matrigel® Basement Membrane Matrix (BD Biosciences®, Bedford, Mass., USA). To implant 786-O tumor cells into nude mice, the cells were trypsinized as above, washed in PBS and resuspended at a concentration of 75×10^6 cells/ml in RPMI 1640 medium with 50% of BD Matrigel® Basement Membrane Matrix. Using a 27 gauge needle and 1 cc syringe, 0.1 ml of the cell suspension was injected into the corpus adiposum of nude mice. The corpus adiposum is a fat body located in the ventral abdominal vicera in the right quadrant of the abdomen at the juncture of the os coxae (pelvic bone) and the os femoris (femur). The location permits palpation and measurement of the tumors using external calipers. Tumor volumes (V) were calculated by caliper measurement of the width (W), length (L) and thickness (T) of tumors using the following formula: V=0.5236×(L×W×T). Animals were randomized into treatment groups so that the average tumor volumes of each group were similar at the start of dosing.
(§2) A tumor model in which the tumors have relatively high and low levels of LDH5, indicating high and low levels of hypoxia, using human tumor cell lines HCT116 and 786-O was established as set forth in the previous example.
(§3) As above, HCT116 and 786-O cells were cultured and implanted into nude mice using the methods in the previous example. Tumor growth was measured using calipers. Prior to treatment with the various agents, tumors were permitted to develop in vivo until they reached approximately 150 mm^3 in volume, which typically required 2-3 weeks following implantation. Animals were randomized into treatment groups so that the average tumor volumes of each group were similar at the start of dosing.
(§4) Tumor volume was monitored throughout the course of the study, until up to about 40 days from the date of tumor implantation. The exact number of days of the study depended on a number of factors including, for example, the number of days from implantation for the tumors to reach the desired volume.

[4] = test system: 786-O human renal carcinoma xenograft; assay: 786-O xenograft model (non-hypoxic tumor); type: in vivo, nude mice
Procedure: as §1, §2, §3, §4

[5] = test system: metastatic colorectal cancer (mCRC); settings: cited from earlier work
[6] = test system: mCRC pretreated with 5-FU/irinotecan; settings: cited from earlier work
[7] = test system: metastatic colorectal cancer (mCRC); settings: P <0.001, cited from earlier work
pancreatic cancer = settings: PTK787 and gemcitabine, cited from earlier work
JAK2V617F = JAK2V617F (Homo sapiens, UniProt O60674, V617F); settings: cited from earlier work
JAK2V617F, sequence (O60674 whole entry V617F): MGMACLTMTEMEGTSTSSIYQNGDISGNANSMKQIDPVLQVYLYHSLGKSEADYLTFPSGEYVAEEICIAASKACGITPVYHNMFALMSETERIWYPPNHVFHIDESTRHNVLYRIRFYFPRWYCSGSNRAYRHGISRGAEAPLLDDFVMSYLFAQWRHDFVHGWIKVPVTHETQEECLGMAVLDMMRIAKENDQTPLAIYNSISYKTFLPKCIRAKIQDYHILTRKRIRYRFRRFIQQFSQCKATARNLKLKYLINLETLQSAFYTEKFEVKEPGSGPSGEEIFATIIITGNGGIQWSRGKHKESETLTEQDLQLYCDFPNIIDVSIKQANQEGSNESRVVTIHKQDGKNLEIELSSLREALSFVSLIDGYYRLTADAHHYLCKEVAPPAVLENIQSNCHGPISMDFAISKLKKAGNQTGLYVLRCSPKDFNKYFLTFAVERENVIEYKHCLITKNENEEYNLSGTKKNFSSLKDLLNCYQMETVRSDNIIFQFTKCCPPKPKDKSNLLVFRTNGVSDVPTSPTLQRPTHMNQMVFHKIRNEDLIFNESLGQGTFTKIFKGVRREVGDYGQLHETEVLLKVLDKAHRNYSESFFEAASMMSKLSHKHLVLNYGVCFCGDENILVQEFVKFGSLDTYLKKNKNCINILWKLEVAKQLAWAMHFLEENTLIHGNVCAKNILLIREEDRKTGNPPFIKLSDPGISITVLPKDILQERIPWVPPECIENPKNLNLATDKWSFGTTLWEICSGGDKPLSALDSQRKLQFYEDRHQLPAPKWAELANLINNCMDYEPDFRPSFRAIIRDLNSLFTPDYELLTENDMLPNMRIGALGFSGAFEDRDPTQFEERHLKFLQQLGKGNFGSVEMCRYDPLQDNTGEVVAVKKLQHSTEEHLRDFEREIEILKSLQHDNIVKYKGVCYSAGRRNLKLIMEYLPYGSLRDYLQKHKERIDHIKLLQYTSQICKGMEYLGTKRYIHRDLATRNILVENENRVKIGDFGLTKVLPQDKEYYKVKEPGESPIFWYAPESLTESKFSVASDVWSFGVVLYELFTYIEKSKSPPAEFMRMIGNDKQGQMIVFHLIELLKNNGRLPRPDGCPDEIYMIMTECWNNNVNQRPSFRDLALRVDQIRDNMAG

[8] = test system: locally advanced or metastatic NSCLC after failure of at least one chemotherapy regimen; settings: erlotinib 150 mg orally once daily; cited from earlier work
[9] = test system: locally advanced or metastatic NSCLC; settings: maintenance, cited from earlier work
[10] = test system: locally advanced, unresectable or metastatic pancreatic cancer; settings: 100 mg cohort, erlotinib arm = plus gemcitabine, comparator gemcitabine alone, cited from earlier work; for progression free survival: p=0.006; for survival: p=0.028
PDGFR-β = PDGFR-β (Homo sapiens, UniProt P09619); settings: in vitro; cited from earlier work
PDGFR-β, sequence (P09619 33-1106, species assumed): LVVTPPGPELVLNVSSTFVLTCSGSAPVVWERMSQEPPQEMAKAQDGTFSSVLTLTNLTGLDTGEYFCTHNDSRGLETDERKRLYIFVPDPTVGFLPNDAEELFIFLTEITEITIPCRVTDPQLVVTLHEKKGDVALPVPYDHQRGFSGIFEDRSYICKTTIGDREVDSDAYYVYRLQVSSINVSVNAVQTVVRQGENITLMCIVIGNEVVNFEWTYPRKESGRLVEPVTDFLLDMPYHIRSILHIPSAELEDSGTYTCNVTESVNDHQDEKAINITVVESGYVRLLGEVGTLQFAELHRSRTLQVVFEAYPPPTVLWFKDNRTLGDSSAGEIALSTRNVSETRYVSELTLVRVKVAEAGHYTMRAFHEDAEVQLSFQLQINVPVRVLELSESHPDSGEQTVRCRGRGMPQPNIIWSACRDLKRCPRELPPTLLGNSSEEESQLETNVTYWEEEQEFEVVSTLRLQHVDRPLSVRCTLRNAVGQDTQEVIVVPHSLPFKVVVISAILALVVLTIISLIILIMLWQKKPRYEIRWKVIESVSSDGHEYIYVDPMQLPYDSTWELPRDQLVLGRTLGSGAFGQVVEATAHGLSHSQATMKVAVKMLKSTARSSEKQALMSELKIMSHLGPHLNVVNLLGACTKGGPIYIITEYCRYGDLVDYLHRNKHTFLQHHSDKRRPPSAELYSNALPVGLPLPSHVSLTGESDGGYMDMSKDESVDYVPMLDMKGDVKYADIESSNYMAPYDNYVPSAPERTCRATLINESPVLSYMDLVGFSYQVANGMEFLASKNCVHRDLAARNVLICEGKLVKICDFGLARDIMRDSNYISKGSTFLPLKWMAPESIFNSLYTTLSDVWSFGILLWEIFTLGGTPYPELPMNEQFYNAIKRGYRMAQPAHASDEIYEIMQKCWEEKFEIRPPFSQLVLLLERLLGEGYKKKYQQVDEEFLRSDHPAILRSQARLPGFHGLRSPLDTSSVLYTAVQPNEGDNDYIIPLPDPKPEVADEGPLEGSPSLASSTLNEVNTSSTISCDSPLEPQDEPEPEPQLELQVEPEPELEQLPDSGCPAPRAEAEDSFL

VEGFR-2 [11] = target: T1, VEGFR-2 (Mus musculus, UniProt P35918); settings: in vivo, cited from earlier work
T1 construct: from tissue; host or cells: mouse lungs (in vivo)
T1 sequence (P35918 20-1345): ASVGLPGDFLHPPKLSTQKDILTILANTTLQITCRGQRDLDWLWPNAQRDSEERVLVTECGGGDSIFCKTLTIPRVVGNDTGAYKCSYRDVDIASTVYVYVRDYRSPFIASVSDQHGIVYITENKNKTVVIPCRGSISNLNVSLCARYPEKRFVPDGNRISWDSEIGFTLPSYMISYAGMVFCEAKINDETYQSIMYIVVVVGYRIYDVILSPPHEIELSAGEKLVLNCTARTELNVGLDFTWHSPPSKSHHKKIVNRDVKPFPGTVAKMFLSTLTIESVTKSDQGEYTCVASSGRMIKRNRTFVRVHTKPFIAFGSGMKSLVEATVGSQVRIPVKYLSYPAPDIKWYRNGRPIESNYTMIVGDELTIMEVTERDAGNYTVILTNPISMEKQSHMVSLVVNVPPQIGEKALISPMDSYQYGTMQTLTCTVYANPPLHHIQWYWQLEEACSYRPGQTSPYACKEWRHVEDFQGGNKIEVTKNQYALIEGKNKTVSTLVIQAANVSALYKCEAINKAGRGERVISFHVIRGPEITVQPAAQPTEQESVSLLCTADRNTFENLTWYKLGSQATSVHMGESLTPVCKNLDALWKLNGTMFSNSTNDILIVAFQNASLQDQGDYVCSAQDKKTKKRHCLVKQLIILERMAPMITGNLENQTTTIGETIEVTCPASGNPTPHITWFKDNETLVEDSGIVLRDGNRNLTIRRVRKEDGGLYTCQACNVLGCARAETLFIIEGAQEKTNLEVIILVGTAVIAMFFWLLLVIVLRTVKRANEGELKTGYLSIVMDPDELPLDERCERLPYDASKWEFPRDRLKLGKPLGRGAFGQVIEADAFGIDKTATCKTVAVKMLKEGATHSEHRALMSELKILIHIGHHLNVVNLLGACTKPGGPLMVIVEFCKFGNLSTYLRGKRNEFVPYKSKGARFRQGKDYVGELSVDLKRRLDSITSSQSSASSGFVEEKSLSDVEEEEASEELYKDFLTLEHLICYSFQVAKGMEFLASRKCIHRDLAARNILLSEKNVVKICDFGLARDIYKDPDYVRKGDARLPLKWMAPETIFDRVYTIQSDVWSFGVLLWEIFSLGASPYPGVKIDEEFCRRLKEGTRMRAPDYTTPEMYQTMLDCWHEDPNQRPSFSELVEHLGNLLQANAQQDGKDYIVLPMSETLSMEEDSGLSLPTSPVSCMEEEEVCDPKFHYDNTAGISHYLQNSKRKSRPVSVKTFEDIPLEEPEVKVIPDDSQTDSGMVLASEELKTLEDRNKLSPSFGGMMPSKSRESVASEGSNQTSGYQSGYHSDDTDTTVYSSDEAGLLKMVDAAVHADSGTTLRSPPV

angiogenesis = settings: mouse model; cited from earlier work
human tumor xenografts = settings: mice; cited from earlier work
[12] = test system: renal cell carcinoma cell lines; settings: cited from earlier work
[13] = test system: advanced RCC and poor prognosis; settings: cited from earlier work; for progression-free survival / median overall survival: single agents; for progression-free survival: P=0.0001; for median overall survival: P=0.0078
RCC and poor prognosis = settings: cited from earlier work
VEGFR-2 [14] = target: VEGFR-2 (Homo sapiens, UniProt P35968); settings: in vitro; cited from earlier work
VEGFR-2 (Homo sapiens, UniProt P35968), sequence (P35968 20-1356, species assumed): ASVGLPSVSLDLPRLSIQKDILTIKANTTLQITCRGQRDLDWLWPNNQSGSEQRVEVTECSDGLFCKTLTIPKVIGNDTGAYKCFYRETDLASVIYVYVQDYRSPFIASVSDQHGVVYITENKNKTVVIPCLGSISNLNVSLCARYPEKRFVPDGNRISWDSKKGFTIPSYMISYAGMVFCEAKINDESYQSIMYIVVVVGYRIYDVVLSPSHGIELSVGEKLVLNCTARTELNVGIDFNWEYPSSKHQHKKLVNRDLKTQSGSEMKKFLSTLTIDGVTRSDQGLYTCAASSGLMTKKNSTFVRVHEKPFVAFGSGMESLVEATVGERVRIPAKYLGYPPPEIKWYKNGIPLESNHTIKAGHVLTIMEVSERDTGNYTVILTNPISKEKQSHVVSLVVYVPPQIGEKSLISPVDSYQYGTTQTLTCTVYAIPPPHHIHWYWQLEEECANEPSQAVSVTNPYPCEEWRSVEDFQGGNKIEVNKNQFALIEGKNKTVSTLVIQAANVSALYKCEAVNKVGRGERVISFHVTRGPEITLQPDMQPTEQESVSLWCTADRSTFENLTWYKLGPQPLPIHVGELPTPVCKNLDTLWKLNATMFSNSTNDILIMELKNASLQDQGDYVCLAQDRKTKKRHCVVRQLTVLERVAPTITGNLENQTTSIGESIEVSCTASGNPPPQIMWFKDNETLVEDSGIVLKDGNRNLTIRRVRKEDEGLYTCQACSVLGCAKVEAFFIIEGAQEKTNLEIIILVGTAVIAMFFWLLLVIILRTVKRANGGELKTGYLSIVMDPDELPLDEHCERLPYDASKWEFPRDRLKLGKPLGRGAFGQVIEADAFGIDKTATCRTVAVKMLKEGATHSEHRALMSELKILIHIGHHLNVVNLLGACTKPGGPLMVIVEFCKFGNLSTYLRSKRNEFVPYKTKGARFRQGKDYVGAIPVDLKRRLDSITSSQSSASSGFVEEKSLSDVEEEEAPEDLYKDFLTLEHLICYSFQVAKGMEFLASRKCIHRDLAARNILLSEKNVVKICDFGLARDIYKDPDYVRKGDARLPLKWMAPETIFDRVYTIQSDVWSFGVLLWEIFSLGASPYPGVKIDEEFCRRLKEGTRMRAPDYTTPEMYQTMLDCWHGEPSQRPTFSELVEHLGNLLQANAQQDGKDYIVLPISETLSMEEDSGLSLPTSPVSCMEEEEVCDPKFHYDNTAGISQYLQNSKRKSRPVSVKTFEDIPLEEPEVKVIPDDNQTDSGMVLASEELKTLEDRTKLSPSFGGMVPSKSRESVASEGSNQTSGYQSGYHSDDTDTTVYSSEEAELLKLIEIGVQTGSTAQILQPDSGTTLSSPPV

renal cancer = settings: bevacizumab arm = with interferon-alpha; comparator interferon-alpha alone; cited from earlier work
[15] = 140 subjects with elevated LDH, log-rank p<0.005
[16] = 264 subjects with normal LDH, log-rank p=0.514

Compound: Cn1c(=O)n(-c2ccc(C(C)(C)C#N)cc2)c2c3cc(-c4cnc5ccccc5c4)ccc3ncc21 [BEZ235]
- effectiveness at slowing tumor growth in tumors with high levels of hypoxia (HCT116) compared with low levels (786O) [1]: not found to work better
- mTORC1 kinase activity (mTORC1): blocks
- mTORC2 kinase activity (mTORC2): blocks
- levels of phosphorylated RPS6 [2]: significantly reduce

Compound: Clc1ccc(Nc2nnc(Cc3ccncc3)c3ccccc23)cc1 [PTK787, N-(4-chlorophenyl)-4-(pyridin-4-ylmethyl)phthalazin-1-amine]
- tumor growth as compared to control ([3]; 50 mg/kg 5×/week p.o., p=0.1209): reduced the growth of the tumor
- tumor burden as compared to control ([4]; 50 mg/kg 5×/week p.o., p=0.7805): no difference in tumor burden
- tumor burden as compared to control ([4]; Erlotinib section, FIG. 5B, 1×/week p.o., p=0.8548): no difference in tumor burden
- tumor burden as compared to control ([4]; XL765 section, FIG. 4B, 30 mg/kg 5×/week p.o., p=0.7682): no difference in tumor burden
- effectiveness at slowing tumor growth in tumors with high levels of hypoxia (HCT116) compared with low levels (786O) [1]: more effective
- PFS HR ([5]; CONFIRM 1 - High LDH, N 316, P 0.002): 0.61
- PFS HR ([5]; CONFIRM 1 - Low LDH, N 852, P 0.43): 0.93
- PFS HR ([6]; CONFIRM 2 - High LDH, N 250): 0.63
- PFS HR ([6]; CONFIRM 2 - Low LDH, N 605, P 0.58): 0.95
- PFS HR ([7]; All CONFIRM 1 & 2 High LDH Patients, N 566): 0.62
- PFS HR ([7]; All CONFIRM 1 & 2 Patients, N 2023): 0.82
- duration of stable disease (pancreatic cancer): 2-6 months
- patients with stable disease as the best response (pancreatic cancer; six of eleven patients): 55%

Compound: COc1cc(Nc2nc3ccccc3nc2NS(=O)(=O)c2ccc(NC(=O)c3ccc(C)c(OC)c3)cc2)cc(OC)c1 [XL765]
- tumor growth rate as compared to control ([3]; 30 mg/kg 5×/week p.o., p=0.009): reduced the growth rate of the tumor
- effectiveness at slowing tumor growth in tumors with high levels of hypoxia (HCT116) compared with low levels (786O) [1]: more effective

Compound: C#Cc1cccc(Nc2ncnc3cc(OCCOC)c(OCCOC)cc23)c1 [erlotinib]
- tumor growth rate as compared to control ([3]; 1×/week p.o., doses 40, 25, 10 mg/kg in the 3rd table, p=0.0224): reduced the growth rate of the tumor
- effectiveness at slowing tumor growth in tumors with high levels of hypoxia (HCT116) compared with low levels (786O) [1]: more effective
- JAK2V617F activity (JAK2V617F): potent inhibitor
- progression free survival [8]: 9.9 weeks
- rate of one year survival [8]: 31.2%
- response duration, median [8]: 34.3 weeks
- survival [8]: 6.7 months
- tumor response [8]: 8.9%
- progression free survival ([9]; erlotinib 150 mg orally once daily): 2.8 months
- overall survival ([9]; difference not statistically significant): 12 weeks
- progression free survival [10]: 3.8 months
- survival [10]: 6.4 months

Compound: Nc1ccn([C@@H]2O[C@H](CO)[C@@H](O)C2(F)F)c(=O)n1 [gemcitabine]
- progression free survival [10]: 3.5 months
- survival [10]: 6.0 months

Compound: Cc1ccc(Nc2nccc(N(C)c3ccc4c(C)n(C)nc4c3)n2)cc1S(N)(=O)=O.Cl [pazopanib]
- ligand-induced autophosphorylation of PDGFR-β (PDGFR-β): inhibited
- VEGF-induced VEGFR-2 phosphorylation (VEGFR-2 [11]; mouse lungs): inhibited
- angiogenesis (angiogenesis): inhibited
- growth of some human tumor xenografts (human tumor xenografts): inhibited

Compound: CNC(=O)c1cc(Oc2ccc(NC(=O)Nc3ccc(Cl)c(C(F)(F)F)c3)cc2)ccn1 [sorafenib]
- effectiveness at slowing tumor growth in tumors with high levels of hypoxia (HCT116) compared with low levels (786O) [1]: not found to work better

Compound: CCN(CC)CCNC(=O)c1c(C)[nH]c(/C=C2\C(=O)Nc3ccc(F)cc32)c1C [sutent]
- effectiveness at slowing tumor growth in tumors with high levels of hypoxia (HCT116) compared with low levels (786O) [1]: not found to work better

Compound: CO[C@H]1C[C@@H]2CC[C@@H](C)[C@@](O)(O2)C(=O)C(=O)N2CCCC[C@H]2C(=O)O[C@H]([C@H](C)C[C@@H]2CC[C@@H](OC(=O)C(C)(CO)CO)[C@H](OC)C2)CC(=O)[C@H](C)/C=C(\C)[C@@H](O)[C@@H](OC)C(=O)[C@H](C)C[C@H](C)/C=C/C=C/C=C/1C [temsirolimus]
- effectiveness at slowing tumor growth in tumors with high levels of hypoxia (HCT116) compared with low levels (786O) [1]: not found to work better
- activity of mTOR [12]: inhibited
- levels of HIF-1 and HIF-2 alpha, and vascular endothelial growth factor [12]: reduced levels
- overall survival compared with interferon-alpha alone ([13]; combination of temsirolimus and interferon-alpha): did not result in a significant increase in overall survival
- increase in median overall survival compared to interferon-alpha ([13]; human, in vivo): 49%
- progression-free survival [13]: 5.5 months
- median overall survival [13]: 10.9 months
- survival (RCC and poor prognosis; [15]): 6.9 months
- survival (RCC and poor prognosis; [16]): 11.7 months

Compound: Cediranib
- VEGF-induced VEGFR-2 phosphorylation (VEGFR-2 [11]; mouse): inhibited
- angiogenesis (angiogenesis): inhibited
- growth of some human tumor xenografts (human tumor xenografts): inhibited
- ligand-induced autophosphorylation of VEGFR-2 (VEGFR-2 [14]): inhibited

Compound: interferon-alpha
- patients with decreased tumor size (renal cancer): 12%
- progression-free survival [13]: 3.1 months
- median overall survival [13]: 7.3 months
- survival (RCC and poor prognosis; [15]): 4.2 months
- survival (RCC and poor prognosis; [16]): 10.4 months

Compound: panitumumab: Anti-EGFR
- effectiveness at slowing tumor growth in tumors with high levels of hypoxia (HCT116) compared with low levels (786O) [1]: not found to work better

Source: patent publication US20120128665A1, “PRESELECTION OF SUBJECTS FOR THERAPEUTIC TREATMENT BASED ON HYPOXIC STATUS” (SYNTA PHARMACEUTICALS CORP., priority 2010, published 2012)
